How the values were obtained:
[1] = tested on: capsaicin-induced mechanical allodynia; assay: Rat model of capsaicin-induced mechanical allodynia; type: in vivo; conditions: sc, male Sprague-Dawley rats, 10 mg/kg subcutaneously, PWT 1 hour after single dose, mean of eight animals, normalized for vehicle, read-out: % Inhibition of allodynia
Description: Compounds of the present invention may be assayed for their ability to treat fibromylagia—like pain in a rat model of capsaicin-induced mechanical allodynia (e.g., Sluka, K A, (2002) J of Neuroscience, 22(13): 5687-5693). For example, a rat model of capsaicin-induced mechanical allodynia) was be carried out as follows:
On day 0, male Sprague-Dawley rats (˜150 g) in the dark cycle were placed in suspended wire-bottom cages and allowed to acclimate for 0.5 hour in a darkened, quiet room. The day 0 paw withdrawal threshold (PWT) was determined on the left hind paw by Von Frey hair assessment using the Dixon up and down method. After assessment, the plantar muscle of the right hind paw was injected with 100 μl capsaicin (0.25% (w/v) in 10% ethanol, 10% Tween 80, in sterile saline). On day 6 the PWT of the left hindpaw (contralateral from injection site) was determined for each animal. Animals from the day 6 prereads with PWT≦11.7 g were considered allodynic responders and were regrouped so that each cage had similar mean PWT values. On day 7, responders were dosed subcutaneously with 10 mg compound/kg body weight, or with vehicle alone. The vehicle was phosphate buffered saline containing 2% Cremophor® EL (BASF). The contralateral PWT values were determined at 1 hour after the single dose, with the investigator blinded to the dosing scheme.
In addition, the day 6 PWT was subtracted from the day 0 PWT to give the baseline window of allodynia present in each animal.

[2] = Vapor sorption analysis of salts; type: physicochemical; conditions: 90% relative humidity, 25° C.; for moles water uptake per total moles of sample at 90% RH: calculated; for % mass change at 90% RH: compared to original mass of sample
Description: The propensity of besylate, hydrochloride, edisylate and fumarate salts of (2S)-2-[(S)-(4-chloro-2-methoxyphenoxy)(phenyl)methyl]morpholine to absorb water vapor was studied at various relative humidities (RH). The besylate, hydrochloride, and edisylate salts were analysed using a VTI Corporation SGA-100 Symmetric Vapor Sorption Analyzer equipped with a CI Electronics Limited, CI MK2, 1 Gram Microbalance, an EdgeTech MODEL 2000 […] DF DEWPOINT HYGROMETER, and an JULABO USA, Inc F25-HE Refrigerated and Heated Circulator. The following method was used:
The propensity of (2S)-2-[(S)-(4-chloro-2-methoxyphenoxy)(phenyl)methyl]morpholine […] to absorb water was similarly analyzed using a VTI Corporation SGA-100 Symmetric Vapor Sorption Analyzer equipped with a CAHN INSTRUMENTS INC, INC. D-200 Digital Recording Balance, an EdgeTech MODEL 2000 […] DF DEWPOINT HYGROMETER, and a JULABO USA, Inc F25-HD Refrigerated and Heated Circulator.

SMILES | inhibition in vivo at 10 mg/kg [1] | moles water uptake per total moles of sample at 90% RH [2] | % mass change at 90% RH [2]
COc1cc(Cl)ccc1O[C@@H](c1ccccc1)[C@@H]1CNCCO1.Cl [Example 38, (2S)-2-[(1S)-(4-chloro-2-methoxyphenoxy) (phenyl)methyl] morpholine hydrochloride] | 59% | 0.77 | 3.8%
COc1cc(Cl)ccc1O[C@@H](c1ccccc1)[C@@H]1CNCCO1.O=S(=O)(O)c1ccccc1 [besylate, (2S)-2-[(S)-(4-chloro-2-methoxyphenoxy)(phenyl)methyl]morpholine besylate] | – | 0.17 | 0.64%

From patent US20080161309A1, “Novel Compounds” (priority 2004, published 2008)
